Measured values taken from publication PMC7206119, “RIP1 inhibition blocks inflammatory diseases but not tumor growth or metastases” (Cell Death and Differentiation, 2019).

Columns and labels:
Experiment in all cases: biochemical
Set-up in all cases: Thermo Fisher SelectScreen kinase panel: Z'-LYTE and Adapta activity, LanthaScreen binding
ALK2 = molecular target: T1, ALK2 (Homo sapiens, UniProt Q04771)
T1 construct: gene ACVR1
Method in brief: (§1)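 GNE684 profiled at 10 µM across 221 kinases with Z'-LYTE and Adapta activity and LanthaScreen binding formats. Also screened at 10 µM against 468 kinases in KINOMEscan scanMAX binding assay.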

Abl = molecular target: T2, Abl (Homo sapiens, UniProt P00519)
T2 construct: gene ABL1
Method in brief: as §1

Aurora_A = molecular target: T3, Aurora_A (Homo sapiens, UniProt O14965)
T3 construct: gene AURKA
Method in brief: as §1

Aurora_B = molecular target: T4, Aurora_B (Homo sapiens, UniProt Q96GD4)
T4 construct: gene AURKB
Method in brief: as §1

CDK2/cyclinA = CDK2/cyclinA (Homo sapiens, UniProt P24941)
Method in brief: as §1

CaMKI = molecular target: T5, CaMKI (Homo sapiens, UniProt Q14012)
T5 construct: gene CAMK1
Method in brief: as §1

CamKIV = molecular target: T6, CamKIV (Homo sapiens, UniProt Q16566)
T6 construct: gene CAMK4
T6 sequence (Q16566 whole entry): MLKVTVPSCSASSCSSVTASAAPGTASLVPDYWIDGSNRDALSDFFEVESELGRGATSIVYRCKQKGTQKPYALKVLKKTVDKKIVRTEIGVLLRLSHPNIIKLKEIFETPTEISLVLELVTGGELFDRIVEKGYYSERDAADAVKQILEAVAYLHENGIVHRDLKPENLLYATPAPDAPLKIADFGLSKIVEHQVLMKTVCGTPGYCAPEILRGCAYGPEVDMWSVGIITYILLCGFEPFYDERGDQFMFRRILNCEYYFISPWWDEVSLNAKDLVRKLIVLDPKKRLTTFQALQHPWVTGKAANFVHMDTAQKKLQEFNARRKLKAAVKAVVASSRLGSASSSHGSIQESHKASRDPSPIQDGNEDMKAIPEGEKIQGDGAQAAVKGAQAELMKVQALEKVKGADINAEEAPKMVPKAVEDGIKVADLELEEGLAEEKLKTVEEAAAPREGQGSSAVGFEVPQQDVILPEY
Method in brief: as §1

EGFR = EGFR (Homo sapiens, UniProt P00533)
Method in brief: as §1

ERK2 = molecular target: T7, ERK2 (Homo sapiens, UniProt P28482)
T7 construct: gene MAPK1
Method in brief: as §1

FAK = molecular target: T8, FAK (Homo sapiens, UniProt Q05397)
T8 construct: gene PTK2
Method in brief: as §1

GSK3_alpha = molecular target: T9, GSK3_alpha (Homo sapiens, UniProt P49840)
T9 construct: gene GSK3A
Method in brief: as §1

HIPK1 = HIPK1 (Homo sapiens, UniProt Q86Z02)
Method in brief: as §1

KDR = KDR (Homo sapiens, UniProt P35968)
KDR, sequence (P35968 whole entry): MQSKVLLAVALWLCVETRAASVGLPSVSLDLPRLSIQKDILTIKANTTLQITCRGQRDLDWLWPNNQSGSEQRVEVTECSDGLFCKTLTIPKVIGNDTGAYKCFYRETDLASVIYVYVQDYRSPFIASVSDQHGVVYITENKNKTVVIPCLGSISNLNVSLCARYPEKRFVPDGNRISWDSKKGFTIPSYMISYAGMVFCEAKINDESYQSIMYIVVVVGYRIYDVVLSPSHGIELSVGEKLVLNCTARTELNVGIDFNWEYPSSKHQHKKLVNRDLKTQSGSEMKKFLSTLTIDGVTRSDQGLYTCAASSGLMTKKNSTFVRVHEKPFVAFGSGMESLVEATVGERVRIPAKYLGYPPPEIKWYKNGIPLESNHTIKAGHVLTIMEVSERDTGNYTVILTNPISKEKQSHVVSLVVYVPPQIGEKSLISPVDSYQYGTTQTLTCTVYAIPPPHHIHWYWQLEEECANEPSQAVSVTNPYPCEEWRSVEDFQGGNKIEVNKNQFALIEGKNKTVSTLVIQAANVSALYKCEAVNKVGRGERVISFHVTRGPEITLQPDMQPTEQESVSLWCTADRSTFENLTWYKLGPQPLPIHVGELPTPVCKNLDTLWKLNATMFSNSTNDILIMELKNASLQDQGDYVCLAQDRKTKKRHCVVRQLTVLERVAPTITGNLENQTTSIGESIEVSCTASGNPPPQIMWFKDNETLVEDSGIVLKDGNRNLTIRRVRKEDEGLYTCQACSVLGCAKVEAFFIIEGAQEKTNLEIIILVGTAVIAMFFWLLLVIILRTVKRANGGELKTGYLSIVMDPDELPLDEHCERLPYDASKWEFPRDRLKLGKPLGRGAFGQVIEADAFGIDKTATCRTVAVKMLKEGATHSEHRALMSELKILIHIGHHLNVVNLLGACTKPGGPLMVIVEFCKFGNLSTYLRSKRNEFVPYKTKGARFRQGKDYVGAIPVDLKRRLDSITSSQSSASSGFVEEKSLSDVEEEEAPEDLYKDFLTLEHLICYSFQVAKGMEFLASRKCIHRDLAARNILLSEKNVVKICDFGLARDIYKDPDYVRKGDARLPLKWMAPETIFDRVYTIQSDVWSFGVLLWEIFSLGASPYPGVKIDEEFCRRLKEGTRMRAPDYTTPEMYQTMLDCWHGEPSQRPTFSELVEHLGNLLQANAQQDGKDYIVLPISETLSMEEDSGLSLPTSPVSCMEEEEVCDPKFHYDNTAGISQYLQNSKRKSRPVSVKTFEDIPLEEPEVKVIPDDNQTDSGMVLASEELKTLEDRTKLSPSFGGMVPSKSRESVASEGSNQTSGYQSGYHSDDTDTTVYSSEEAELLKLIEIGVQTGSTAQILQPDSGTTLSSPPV
Method in brief: as §1

PAK6 = PAK6 (Homo sapiens, UniProt Q9NQU5)
PAK6, sequence (Q9NQU5 whole entry): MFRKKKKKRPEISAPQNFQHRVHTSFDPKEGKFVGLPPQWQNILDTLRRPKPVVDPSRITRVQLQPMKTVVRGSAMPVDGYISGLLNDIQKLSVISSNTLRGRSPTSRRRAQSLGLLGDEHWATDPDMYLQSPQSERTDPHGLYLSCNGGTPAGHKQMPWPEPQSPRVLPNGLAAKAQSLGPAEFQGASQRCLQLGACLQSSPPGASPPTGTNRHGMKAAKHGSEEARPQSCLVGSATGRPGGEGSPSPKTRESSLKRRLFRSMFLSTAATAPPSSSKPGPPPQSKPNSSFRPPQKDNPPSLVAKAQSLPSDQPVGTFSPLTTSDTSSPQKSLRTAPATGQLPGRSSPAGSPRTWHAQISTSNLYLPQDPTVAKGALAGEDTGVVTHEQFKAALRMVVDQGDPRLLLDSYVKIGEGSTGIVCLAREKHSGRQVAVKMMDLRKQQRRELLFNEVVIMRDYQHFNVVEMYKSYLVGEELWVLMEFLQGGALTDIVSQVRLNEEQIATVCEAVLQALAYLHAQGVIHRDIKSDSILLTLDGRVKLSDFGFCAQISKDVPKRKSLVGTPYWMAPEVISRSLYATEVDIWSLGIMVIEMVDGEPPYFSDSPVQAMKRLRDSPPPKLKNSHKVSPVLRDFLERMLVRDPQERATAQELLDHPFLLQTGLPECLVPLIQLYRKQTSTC
Method in brief: as §1

PI3K-A = molecular target: T10, PI3K-A (Homo sapiens, UniProt P42336)
T10 construct: gene PIK3CA; p110alpha/p85alpha
Method in brief: as §1

PI3K-G = molecular target: T11, PI3K-G (Homo sapiens, UniProt P48736)
T11 construct: gene PIK3CG; p110gamma
Method in brief: as §1

PKC_delta = molecular target: T12, PKC_delta (Homo sapiens, UniProt Q05655)
T12 construct: gene PRKCD
T12 sequence (Q05655 whole entry): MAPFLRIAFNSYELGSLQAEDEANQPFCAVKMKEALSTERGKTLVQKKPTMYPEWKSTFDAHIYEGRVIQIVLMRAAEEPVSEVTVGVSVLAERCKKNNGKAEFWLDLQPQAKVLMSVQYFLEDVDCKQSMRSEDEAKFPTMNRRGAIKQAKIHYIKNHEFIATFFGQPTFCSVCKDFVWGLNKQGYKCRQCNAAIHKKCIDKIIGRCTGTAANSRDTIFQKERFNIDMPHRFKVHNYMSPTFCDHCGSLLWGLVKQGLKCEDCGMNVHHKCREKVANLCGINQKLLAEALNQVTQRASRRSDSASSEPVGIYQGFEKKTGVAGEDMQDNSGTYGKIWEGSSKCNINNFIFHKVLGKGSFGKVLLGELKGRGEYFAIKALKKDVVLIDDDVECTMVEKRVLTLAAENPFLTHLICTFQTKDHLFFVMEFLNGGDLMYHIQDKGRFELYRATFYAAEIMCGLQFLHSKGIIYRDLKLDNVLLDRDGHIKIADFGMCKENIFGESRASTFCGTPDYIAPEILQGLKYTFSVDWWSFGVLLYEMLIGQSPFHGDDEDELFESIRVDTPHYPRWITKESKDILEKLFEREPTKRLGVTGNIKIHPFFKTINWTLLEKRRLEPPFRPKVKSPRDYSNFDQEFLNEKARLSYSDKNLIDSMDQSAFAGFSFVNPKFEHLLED
Method in brief: as §1

PRKAA1 = PRKAA1 (Homo sapiens, UniProt Q13131)
Method in brief: as §1

Ros = molecular target: T13, Ros (Homo sapiens, UniProt P08922)
T13 construct: gene ROS1
Method in brief: as §1

STK33 = STK33 (Homo sapiens, UniProt Q9BYT3)
Method in brief: as §1

TNK2 = TNK2 (Homo sapiens, UniProt Q07912)
Method in brief: as §1

TYK2 = TYK2 (Homo sapiens, UniProt P29597)
TYK2, sequence (P29597 whole entry): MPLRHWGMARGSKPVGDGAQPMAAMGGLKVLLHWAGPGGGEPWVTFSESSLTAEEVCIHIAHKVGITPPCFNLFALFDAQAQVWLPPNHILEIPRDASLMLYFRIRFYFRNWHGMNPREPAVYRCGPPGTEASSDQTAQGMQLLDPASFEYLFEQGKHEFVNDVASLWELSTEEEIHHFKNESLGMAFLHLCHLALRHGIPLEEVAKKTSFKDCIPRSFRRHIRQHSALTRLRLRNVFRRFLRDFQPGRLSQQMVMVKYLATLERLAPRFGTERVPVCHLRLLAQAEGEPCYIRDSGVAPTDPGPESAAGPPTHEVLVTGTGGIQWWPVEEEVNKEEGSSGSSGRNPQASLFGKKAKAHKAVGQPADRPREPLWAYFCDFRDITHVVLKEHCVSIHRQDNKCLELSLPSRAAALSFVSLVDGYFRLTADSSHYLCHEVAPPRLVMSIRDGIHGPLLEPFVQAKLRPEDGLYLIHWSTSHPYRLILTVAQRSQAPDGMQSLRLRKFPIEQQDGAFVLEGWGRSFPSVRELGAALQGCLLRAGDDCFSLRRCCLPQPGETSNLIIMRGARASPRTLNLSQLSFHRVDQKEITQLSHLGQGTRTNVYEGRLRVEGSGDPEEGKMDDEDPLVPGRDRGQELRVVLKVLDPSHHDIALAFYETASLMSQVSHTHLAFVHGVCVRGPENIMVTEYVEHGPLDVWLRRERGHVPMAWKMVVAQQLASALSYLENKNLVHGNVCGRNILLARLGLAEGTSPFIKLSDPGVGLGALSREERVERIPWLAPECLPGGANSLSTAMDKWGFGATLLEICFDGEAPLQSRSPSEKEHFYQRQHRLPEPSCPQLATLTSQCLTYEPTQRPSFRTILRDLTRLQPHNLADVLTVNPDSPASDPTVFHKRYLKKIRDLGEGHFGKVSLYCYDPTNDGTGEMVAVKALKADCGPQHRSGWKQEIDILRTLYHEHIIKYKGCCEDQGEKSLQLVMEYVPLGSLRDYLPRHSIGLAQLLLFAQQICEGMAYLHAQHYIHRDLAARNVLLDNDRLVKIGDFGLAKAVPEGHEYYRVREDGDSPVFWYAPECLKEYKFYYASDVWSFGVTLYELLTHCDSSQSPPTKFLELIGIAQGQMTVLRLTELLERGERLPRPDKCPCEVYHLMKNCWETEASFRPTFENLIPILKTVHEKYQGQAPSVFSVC
Method in brief: as §1

ZIPK = molecular target: T14, ZIPK (Homo sapiens, UniProt O43293)
T14 construct: gene DAPK3
T14 sequence (O43293 whole entry): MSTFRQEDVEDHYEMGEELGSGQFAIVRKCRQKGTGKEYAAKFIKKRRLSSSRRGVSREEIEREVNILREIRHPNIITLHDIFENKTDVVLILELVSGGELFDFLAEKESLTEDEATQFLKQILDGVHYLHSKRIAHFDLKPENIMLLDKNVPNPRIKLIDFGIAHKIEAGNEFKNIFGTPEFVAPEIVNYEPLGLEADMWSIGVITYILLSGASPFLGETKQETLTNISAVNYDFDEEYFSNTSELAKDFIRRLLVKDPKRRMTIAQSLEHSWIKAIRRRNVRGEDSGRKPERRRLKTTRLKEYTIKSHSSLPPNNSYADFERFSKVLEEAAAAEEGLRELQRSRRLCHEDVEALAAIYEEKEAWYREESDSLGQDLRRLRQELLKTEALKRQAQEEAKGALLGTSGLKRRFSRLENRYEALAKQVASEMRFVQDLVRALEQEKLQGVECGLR
Method in brief: as §1

COc1cc2c(cn1)N(C)C(=O)[C@@H](NC(=O)c1nc3n(n1)[C@H](c1ccccc1)CC3)CC2 [GNE684, (S)-N-((S)-7-methoxy-1-methyl-2-oxo-2,3,4,5-tetrahydro-1H-pyrido[3,4-b]azepin-3-yl)-5-phenyl-6,7-dihydro-5H-pyrrolo[1,2-b][1,2,4]triazole-2-carboxamide]
inhibition at 10 µM (ALK2): 2%
inhibition at 10 µM (Abl): 2%
inhibition at 10 µM (Aurora_A): 3%
inhibition at 10 µM (Aurora_B): 6.5%
inhibition at 10 µM (CDK2/cyclinA): 6.5%
inhibition at 10 µM (CaMKI): -5.5%
inhibition at 10 µM (CamKIV): -1%
inhibition at 10 µM (EGFR): 2.5%
inhibition at 10 µM (ERK2): 1%
inhibition at 10 µM (FAK): 7.5%
inhibition at 10 µM (GSK3_alpha): 5%
inhibition at 10 µM (HIPK1): 0%
inhibition at 10 µM (KDR): -0.5%
inhibition at 10 µM (PAK6): 4.5%
inhibition at 10 µM (PI3K-A): 16%
inhibition at 10 µM (PI3K-G): 13.5%
inhibition at 10 µM (PKC_delta): 8%
inhibition at 10 µM (PRKAA1): -3%
inhibition at 10 µM (Ros): 3%
inhibition at 10 µM (STK33): 0%
inhibition at 10 µM (TNK2): 2.5%
inhibition at 10 µM (TYK2): 3.5%
inhibition at 10 µM (ZIPK): 1%
